Measured values from ChEMBL document CHEMBL1201862, “PubChem BioAssay data set” (2004).
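Tested at 5 concentrations; 48 h exposure; 96-well plates; endpoints linearly interpolated, else capped at highest concentration. GI50 marks 50% less growth.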 Calls of active or inactive are those of the source. Cut-off read from the data, not from the text of the source: active = GI50 up to about 1.1 µM and inactive = higher.

Tests used:
Experiment in all cases: NCI anticancer screen, dose series, 48 h
[1] = system: IGROV-1
[2] = system: OVCAR-3
[3] = system: COLO 205
[4] = system: UO-31
[5] = system: HOP-62
[6] = system: U-251
[7] = system: LOX IMVI
[8] = system: DU-145
[9] = system: MDA-MB-435
[10] = system: SK-MEL-5
[11] = system: HCT-15
[12] = system: CCRF-CEM
[13] = system: SF-268
[14] = system: Malme-3M
[15] = system: A498
[16] = system: KM12
[17] = system: SN12C
[18] = system: T47D
[19] = system: RXF 393
[20] = system: HL-60

| SMILES | GI50 [1] | GI50 [2] | GI50 [3] | GI50 [4] | GI50 [5] | GI50 [6] | GI50 [7] | GI50 [8] | GI50 [9] | GI50 [10] | GI50 [11] [µM] | GI50 [12] | GI50 [13] | GI50 [14] | GI50 [15] | GI50 [16] | GI50 [17] | GI50 [18] | GI50 [19] | GI50 [20] |
| --- | --- | --- | --- | --- | --- | --- | --- | --- | --- | --- | --- | --- | --- | --- | --- | --- | --- | --- | --- | --- |
| O=C(OCC1CCCN2CCCCC12)c1ccncc1 (stereo not drawn) | > 100 µM (inactive) | > 100 µM (inactive) | > 100 µM (inactive) | > 100 µM (inactive) | > 100 µM (inactive) | > 100 µM (inactive) | > 100 µM (inactive) | > 100 µM (inactive) | > 100 µM (inactive) | > 100 µM (inactive) | > 100 | > 100 µM (inactive) | > 100 µM (inactive) | > 100 µM (inactive) | > 100 µM (inactive) | > 100 µM (inactive) | > 100 µM (inactive) | > 100 µM (inactive) | > 100 µM (inactive) | – |
| Cc1ccc(Nc2cn(COCc3ccccc3)c(=O)[nH]c2=O)cc1 | 45.6 µM (inactive) | > 100 µM (inactive) | > 100 µM (inactive) | > 100 µM (inactive) | 29.4 µM (inactive) | > 100 µM (inactive) | > 100 µM (inactive) | > 100 µM (inactive) | > 100 µM (inactive) | > 100 µM (inactive) | > 100 | > 100 µM (inactive) | 27.8 µM (inactive) | – | > 100 µM (inactive) | > 100 µM (inactive) | > 100 µM (inactive) | – | > 100 µM (inactive) | > 100 µM (inactive) |
| O=S(=O)(c1ccc(/N=N/O)nc1)c1ccc2ccccc2c1 | 54.8 µM (inactive) | > 100 µM (inactive) | 97.3 µM (inactive) | 23.1 µM (inactive) | > 100 µM (inactive) | > 100 µM (inactive) | – | > 100 µM (inactive) | – | 36.8 µM (inactive) | > 100 | 29.3 µM (inactive) | > 100 µM (inactive) | 26.5 µM (inactive) | > 100 µM (inactive) | > 100 µM (inactive) | 95.5 µM (inactive) | 40 µM (inactive) | – | 47.8 µM (inactive) |
| Cc1cnc2sn(-c3ccc([N+](=O)[O-])cc3)c(=O)c2c1 | 57.3 µM (inactive) | 36.1 µM (inactive) | > 100 µM (inactive) | 74.6 µM (inactive) | 14.9 µM (inactive) | 30.1 µM (inactive) | 72.6 µM (inactive) | 99.3 µM (inactive) | > 100 µM (inactive) | > 100 µM (inactive) | > 100 | – | 54.1 µM (inactive) | > 100 µM (inactive) | – | > 100 µM (inactive) | > 100 µM (inactive) | > 100 µM (inactive) | – | – |
| CC(=O)[C@@H]1C/C(=C\OCc2ccccc2)O[C@H]1C | > 100 µM (inactive) | > 100 µM (inactive) | > 100 µM (inactive) | > 100 µM (inactive) | > 100 µM (inactive) | > 100 µM (inactive) | 61.2 µM (inactive) | > 100 µM (inactive) | > 100 µM (inactive) | > 100 µM (inactive) | > 100 | – | > 100 µM (inactive) | > 100 µM (inactive) | > 100 µM (inactive) | > 100 µM (inactive) | > 100 µM (inactive) | > 100 µM (inactive) | > 100 µM (inactive) | – |
| Cc1nn(-c2ccccc2)c2nc3c(c(C)nn3-c3ccccc3)c(-c3ccccc3Br)c12 | > 100 µM (inactive) | > 100 µM (inactive) | > 100 µM (inactive) | 59.4 µM (inactive) | > 100 µM (inactive) | > 100 µM (inactive) | > 100 µM (inactive) | > 100 µM (inactive) | > 100 µM (inactive) | > 100 µM (inactive) | > 100 | > 100 µM (inactive) | > 100 µM (inactive) | > 100 µM (inactive) | > 100 µM (inactive) | > 100 µM (inactive) | > 100 µM (inactive) | > 100 µM (inactive) | > 100 µM (inactive) | – |
| CCCCCCCCCCCCCCCCCCNc1ccn(C2OC(COP(=O)(O)OCC3CCC(n4cnc5c(=O)[nH]cnc54)O3)C(O)C2O)c(=O)n1 (stereo not drawn) | 84.1 µM (inactive) | > 100 µM (inactive) | > 100 µM (inactive) | > 100 µM (inactive) | > 100 µM (inactive) | > 100 µM (inactive) | > 100 µM (inactive) | > 100 µM (inactive) | > 100 µM (inactive) | > 100 µM (inactive) | 97.5 | 29.3 µM (inactive) | > 100 µM (inactive) | > 100 µM (inactive) | > 100 µM (inactive) | > 100 µM (inactive) | > 100 µM (inactive) | 95.5 µM (inactive) | 19.9 µM (inactive) | – |
| Nc1nc(Cl)c2nnn(CC3CCC(CO)C3)c2n1 (stereo not drawn) | – | > 100 µM (inactive) | > 100 µM (inactive) | > 100 µM (inactive) | > 100 µM (inactive) | > 100 µM (inactive) | > 100 µM (inactive) | > 100 µM (inactive) | > 100 µM (inactive) | > 100 µM (inactive) | > 100 | > 100 µM (inactive) | > 100 µM (inactive) | – | > 100 µM (inactive) | > 100 µM (inactive) | > 100 µM (inactive) | > 100 µM (inactive) | > 100 µM (inactive) | – |
